Test results published in PMC9014859 (Journal of Medicinal Chemistry, 2022).
“Also recorded” adds a separate entry of the source.

Legend:
[1] = test system: Mouse small mesenteric artery (NPR-C KO)
[2] = target: T1, NPR-C extracellular domains (Homo sapiens, UniProt P17342); experiment: Fluorescence polarization; format: binding; conditions: competition against fluorescent P19 probe
T1 sequence (P17342 27-481): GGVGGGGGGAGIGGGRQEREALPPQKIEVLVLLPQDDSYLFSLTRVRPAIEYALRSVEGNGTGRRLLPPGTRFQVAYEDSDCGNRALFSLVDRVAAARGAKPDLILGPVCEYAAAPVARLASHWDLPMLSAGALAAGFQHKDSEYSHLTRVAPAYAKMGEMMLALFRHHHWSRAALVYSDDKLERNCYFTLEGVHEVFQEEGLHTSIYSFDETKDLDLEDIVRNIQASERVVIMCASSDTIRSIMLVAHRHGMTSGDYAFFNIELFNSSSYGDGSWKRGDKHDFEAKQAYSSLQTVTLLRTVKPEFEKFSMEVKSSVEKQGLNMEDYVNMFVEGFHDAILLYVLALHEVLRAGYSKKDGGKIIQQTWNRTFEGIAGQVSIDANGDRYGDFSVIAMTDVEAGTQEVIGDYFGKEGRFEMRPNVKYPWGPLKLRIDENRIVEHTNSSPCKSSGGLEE

[3] = test system: Rat small mesenteric artery
[4] = test system: CYP1A2, 2B6, 2C8, 2C9, 2C19, 2D6, 3A4 (value spans the isoforms); experiment: in vitro; conditions: human
physchem = conditions: solubility (mg/mL), PBS, 5% DMSO, room temperature, 3 h
in vitro [5] = conditions: male, Sprague-Dawley, rat, hepatocytes
in vitro [6] = conditions: PAMPA, pH 7.4, PAMPA Papp (cm/S × 10^–6)
[7] = test system: CYP isoforms 1A2, 2B6, 2C8, 2C9, 2C19, 2D6, 3A4; experiment: in vitro; conditions: human
[8] = target: T2, Human NPR-C in HeLa cells (Homo sapiens, UniProt P17342); experiment: Inhibition of forskolin-induced cAMP production in HeLa cells; conditions: 100 μM compound, forskolin 10 μM
T2 sequence (P17342 27-541): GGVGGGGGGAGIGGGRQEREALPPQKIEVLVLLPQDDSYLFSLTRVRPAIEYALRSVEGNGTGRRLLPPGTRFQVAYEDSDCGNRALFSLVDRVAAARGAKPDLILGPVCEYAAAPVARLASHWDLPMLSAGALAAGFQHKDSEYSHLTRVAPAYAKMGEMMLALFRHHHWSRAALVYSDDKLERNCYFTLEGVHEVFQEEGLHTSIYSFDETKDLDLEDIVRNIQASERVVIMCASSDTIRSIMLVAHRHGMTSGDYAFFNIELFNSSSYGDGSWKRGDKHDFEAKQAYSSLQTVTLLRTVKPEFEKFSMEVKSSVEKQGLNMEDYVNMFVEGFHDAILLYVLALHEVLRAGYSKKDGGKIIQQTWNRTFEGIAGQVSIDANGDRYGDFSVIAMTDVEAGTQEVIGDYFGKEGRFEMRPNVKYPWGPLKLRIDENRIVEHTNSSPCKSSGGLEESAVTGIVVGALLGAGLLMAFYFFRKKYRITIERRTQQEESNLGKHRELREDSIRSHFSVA

in vitro [9] = conditions: plasma
[10] = target: T3, Human FL NPR-C (27–541)-10His-Flag (Homo sapiens, UniProt P17342); experiment: Surface plasmon resonance; conditions: SPR, affinity model, 1:1 binding; for Kd: KD (μM)
T3 sequence (P17342 27-541): T2 sequence (P17342 27-541)

[11] = pH 7.4

Structure (SMILES): CC(=O)Nc1ccc(Nc2ncnc(NCCC(=O)OC(C)(C)C)n2)cc1 [Compound 1, tert-Butyl 3-((4-((4-Acetamidophenyl)amino)-1,3,5-triazin-2-yl)amino)propanoate]
- reduction in potency in NPR-C KO tissue ([1]; mouse SMA, KO vs wild-type): 6.4 fold
- FP EC50 (μM) [2]: Low % binding
- reduction in potency (EC50 value) when treated with M372049 ([3]; rat SMA): 10 fold
- reduction in potency (EC50 value) when treated with osteocrin ([3]; rat SMA): 2.5 fold
- EC50 [4]: > 50 µM

Structure (SMILES): COC(=O)[C@H](CC(C)C)Nc1nc(Cl)nc(N[C@H]2CC[C@H](Nc3nc(Cl)nc(N[C@@H](CC(C)C)C(=O)OC)n3)CC2)n1 [Compound 17, Dimethyl 2,2′-(((((1r,4r)-Cyclohexane-1,4-diyl)bis(azanediyl))bis(6-chloro-1,3,5-triazine-4,2-diyl))bis(azanediyl))bis(4-methylpentanoate)]
- Mouse small mesenteric artery NPR-C KO EC50 ± SEM (μM) ([1]; vasorelaxation, NPR-C knockout): maintained their activity
- solubility (physchem): > 0.07 mg/mL
- hepatocyte CLint (in vitro [5]): < 6.4 µL/min/1e6 cells
- half-life (in vitro [5]; hepatocyte (rat) T1/2 (min), 1 μM test compound): > 3.33 h
- Papp (in vitro [6]): < 10 nm/s
- Papp (in vitro [6]; pH 7.4, 5 h, room temperature): < 0.23 nm/s
- Rat small mesenteric artery EC50+NPR-C inhibitor (M372049) ± SEM (μM) ([3]; vasorelaxation, with M372049 (10 μM)): maintained their activity
- EC50 [7]: 4.96 to 37.8 µM
- inhibition of cAMP formation [8]: inhibition trend that did not reach statistical significance
- fraction unbound (in vitro [9]; Sprague-Dawley, human and rat): < 0.005

Structure (SMILES): CC(C)C[C@H](Nc1nc(Cl)nc(Nc2ccc(NC(=O)c3ccccc3)cc2)n1)C(=O)OC(C)(C)C [Compound 22, tert-Butyl (4-((4-Benzamidophenyl)amino)-6-chloro-1,3,5-triazin-2-yl)-L-leucinate]
- KD (μM) [10]: poor binding profile; also recorded: Rmax>>theoretical

Structure (SMILES): CC(=O)Nc1ccc(Nc2ncnc(N[C@@H](CC(C)C)C(=O)OC(C)(C)C)n2)cc1 [Compound 26, tert-Butyl (4-((4-Acetamidophenyl)amino)-1,3,5-triazin-2-yl)-L-leucinate]
- FP EC50 (μM) [2]: Inactive
- inhibition of cAMP formation [8]: inhibition trend that did not reach statistical significance

Structure (SMILES): CC(=O)Nc1ccc(Nc2ncnc(N[C@@H](CC(C)C)C(=O)O)n2)cc1 [Compound 27, (4-((4-Acetamidophenyl)amino)-1,3,5-triazin-2-yl)-L-leucine]
- solubility (physchem): > 0.07 mg/mL
- EC50 [4]: > 50 µM
- fraction unbound (in vitro [9]): 0.15

Structure (SMILES): CON(C)C(=O)[C@H](CC(C)C)Nc1ncnc(Nc2ccc(NC(C)=O)cc2)n1 [Compound 32, (S)-2-((4-((4-Acetamidophenyl)amino)-1,3,5-triazin-2-yl)amino)-N-methoxy-N,4-dimethylpentanamide]
- Kd [10]: 144 ± 7.7 µM

Structure (SMILES): CC(=O)Nc1ccc(Nc2ncnc(N[C@H](CC(C)C)C(=O)OC(C)(C)C)n2)cc1 [Compound 34, tert-Butyl (4-((4-Acetamidophenyl)amino)-1,3,5-triazin-2-yl)-D-leucinate]
- KD (μM) [10]: failing to pass the preliminary binding screen

Structure (SMILES): CC(=O)Nc1ccc(Nc2ncnc(NCC(=O)OC(C)(C)C)n2)cc1 [Compound 36, tert-Butyl (4-((4-Acetamidophenyl)amino)-1,3,5-triazin-2-yl)glycinate]
- PAMPA Papp (cm/S × 10^–6) [11]: < 1

Structure (SMILES): CC(=O)Nc1ccc(Nc2ncnc(NC(C)(C)C(=O)OC(C)(C)C)n2)cc1 [Compound 38, tert-Butyl 2-((4-((4-Acetamidophenyl)amino)-1,3,5-triazin-2-yl)amino)-2-methylpropanoate]
- KD (μM) [10]: did not meet the minimum binding threshold

Structure (SMILES): CC(=O)Nc1ccc(Nc2ncnc(N[C@@H](C)C(=O)OC(C)(C)C)n2)cc1 [Compound 39, tert-Butyl (4-((4-Acetamidophenyl)amino)-1,3,5-triazin-2-yl)-L-alaninate]
- KD (μM) [10]: did not meet the minimum binding threshold

Structure (SMILES): CC(=O)Nc1ccc(Nc2ncnc(N[C@@H](Cc3ccc(O)cc3)C(=O)OC(C)(C)C)n2)cc1 [Compound 42, tert-Butyl (4-((4-Acetamidophenyl)amino)-1,3,5-triazin-2-yl)-L-tyrosinate]
- KD (μM) [10]: did not meet the minimum binding threshold

Structure (SMILES): CC(=O)Nc1ccc(Nc2ncnc(N[C@H](CC(=O)OC(C)(C)C)Cc3ccccc3)n2)cc1 [Compound 44, tert-Butyl (S)-3-((4-((4-Acetamidophenyl)amino)-1,3,5-triazin-2-yl)amino)-4-phenylbutanoate]
- FP EC50 (μM) [2]: Inactive
- Kd [10]: 29.6 ± 4.5 µM
